The compounds below were run against T1, histamine H4 receptor (Homo sapiens, UniProt Q9H3N8) (assay: H4 Membrane Binding Assay (3H-Histamine displacement)). Settings: membranes of recombinant HEK293SFM cells, 10 nM 3H-Histamine, 1.5 hr at room temperature.
T1 construct: expressed in transfected cells; host or cells: HEK293SFM cells (membrane preparation)
Method in brief: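 Radioligand is [3H]-histamine; 1000× unlabeled ligand sets nonspecific binding. Receptor source: membrane pellets from HEK293SFM cells carrying human H4 or other histamine subtypes (human H1–H3, mouse H4), in 50 mM Tris-HCl pH 7.5. Filtration through PEI-treated GF/B filters, then scintillation counting.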

T1 sequence (Q9H3N8 whole entry): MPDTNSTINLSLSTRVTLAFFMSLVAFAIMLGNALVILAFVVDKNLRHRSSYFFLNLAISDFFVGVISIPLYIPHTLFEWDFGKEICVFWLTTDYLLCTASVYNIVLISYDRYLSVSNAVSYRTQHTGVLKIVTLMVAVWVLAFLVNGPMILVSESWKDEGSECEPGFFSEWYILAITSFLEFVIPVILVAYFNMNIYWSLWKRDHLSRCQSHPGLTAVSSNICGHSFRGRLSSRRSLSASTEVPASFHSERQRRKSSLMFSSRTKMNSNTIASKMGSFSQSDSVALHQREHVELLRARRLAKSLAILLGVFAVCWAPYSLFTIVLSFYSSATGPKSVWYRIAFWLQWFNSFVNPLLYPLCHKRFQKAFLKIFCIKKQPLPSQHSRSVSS

Structure (SMILES)	IC50 [nM]
CN1CCN(c2nc(N)nc3cc(C(=O)N[C@@H](Cc4ccc(-c5cncc(C#N)c5)cc4)C(=O)N(C)C)ccc23)CC1 [Example 156, 2-Amino-N-[(1S)-1-[4-(5-cyanopyridin-3-yl)benzyl]-2-(dimethylamino)-2-oxoethyl]-4-(4-methylpiperazin-1-yl)quinazoline-7-carboxamide]	41
CN1CCN(c2nc(N)nc3cc(C(=O)N[C@@H](Cc4ccc(-c5nc(C(F)(F)F)ccc5C#N)cc4)C(=O)N(C)C)ccc23)CC1 [Example 157, 2-Amino-N-[(1S)-1-{4-[3-cyano-6-(trifluoromethyl)pyridin-2-yl]benzyl}-2-(dimethylamino)-2-oxoethyl]-4-(4-methylpiperazin-1-yl)quinazoline-7-carboxamide]	22
COC(=O)c1cccc(-c2ccc(C[C@H](NC(=O)c3ccc4c(N5CCN(C)CC5)nc(N)nc4c3)C(=O)N(C)C)cc2)c1 [Example 158, Methyl 4′-[(2S)-2-({[2-amino-4-(4-methylpiperazin-1-yl)quinazolin-7-yl]carbonyl}amino)-3-(dimethylamino)-3-oxopropyl]biphenyl-3-carboxylate]	6.6
CN1CCN(c2nc(N)nc3cc(C(=O)N[C@@H](Cc4ccc(-c5ccc(F)c(C(F)(F)F)c5)cc4)C(=O)N(C)C)ccc23)CC1 [Example 159, 2-Amino-N-((1S)-2-(dimethylamino)-1-{[4′-fluoro-3′-(trifluoromethyl)biphenyl-4-yl]methyl}-2-oxoethyl)-4-(4-methylpiperazin-1-yl)quinazoline-7-carboxamide]	26
CN1CCN(c2nc(N)nc3cc(C(=O)N[C@@H](Cc4ccc(-c5ccccn5)cc4)C(=O)N(C)C)ccc23)CC1 [Example 160, 2-Amino-N-[(1S)-2-(dimethylamino)-2-oxo-1-(4-pyridin-2-ylbenzyl)ethyl]-4-(4-methylpiperazin-1-yl)quinazoline-7-carboxamide]	52
CN1CCN(c2nc(N)nc3cc(C(=O)N[C@@H](Cc4ccc(-c5cncc(C(F)(F)F)c5)cc4)C(=O)N(C)C)ccc23)CC1 [Example 161, 2-Amino-N-((1S)-2-(dimethylamino)-2-oxo-1-{4-[5-(trifluoromethyl)pyridin-3-yl]benzyl}ethyl)-4-(4-methylpiperazin-1-yl)quinazoline-7-carboxamide]	31
CN1CCN(c2nc(N)nc3cc(C(=O)N[C@@H](Cc4ccc(-c5cccc(Cl)c5Cl)cc4)C(=O)N(C)C)ccc23)CC1 [Example 162, 2-Amino-N-[(1S)-1-[(2′,3′-dichlorobiphenyl-4-yl)methyl]-2-(dimethylamino)-2-oxoethyl]-4-(4-methylpiperazin-1-yl)quinazoline-7-carboxamide]	10
CN1CCN(c2nc(N)nc3cc(C(=O)NC(Cc4ccc(-c5cccc(F)c5F)nc4)C(=O)N(C)C)ccc23)CC1 (centres unmarked) [Example 163, 2-Amino-N-[1-{[6-(2,3-difluorophenyl)pyridin-3-yl]methyl}-2-(dimethylamino)-2-oxoethyl]-4-(4-methylpiperazin-1-yl)quinazoline-7-carboxamide]	66
COc1ccc(-c2ccc(CC(NC(=O)c3ccc4c(N5CCN(C)CC5)nc(N)nc4c3)C(=O)N(C)C)cn2)cc1 (centres unmarked) [Example 164, 2-Amino-N-(-2-(dimethylamino)-1-{[6-(4-methoxyphenyl)pyridin-3-yl]methyl}-2-oxoethyl)-4-(4-methylpiperazin-1-yl)quinazoline-7-carboxamide]	57
CN1CCN(c2nc(N)nc3cc(C(=O)N[C@@H](Cc4ccc(OC(=O)Nc5cccc(Cl)c5)cc4)C(=O)N(C)C)ccc23)CC1 [Example 165, 4-[(2S)-2-({[2-Amino-4-(4-methylpiperazin-1-yl)quinazolin-7-yl]carbonyl}amino)-3-(dimethylamino)-3-oxopropyl]phenyl (3-chlorophenyl)carbamate]	16
COc1ccc(Oc2cccc(CC(NC(=O)c3ccc4c(N5CCN(C)CC5)nc(N)nc4c3)C(=O)N(C)C)c2)cc1 (centres unmarked) [Example 166, 2-Amino-N-{2-(dimethylamino)-1-[3-(4-methoxyphenoxy)benzyl]-2-oxoethyl}-4-(4-methylpiperazin-1-yl)quinazoline-7-carboxamide]	31

Source: patent US8481732B2 (Incyte Corporation, priority 2009, dated 2013)
